Entries after “also recorded” stand apart in the source; their conditions may differ. Where two headings read alike, the source gives them in different places.
What was measured:
[1] = tested on: ERα; settings: exposure 0–10 µM; ref Charles et al. (2000); cited from earlier work
[2] = target: T1, aryl hydrocarbon receptor (AhR) (Rattus norvegicus, UniProt P41738); experiment: H4IIE AhR CALUX agonist assay; assay type: cell-based
T1 sequence (P41738 10-853): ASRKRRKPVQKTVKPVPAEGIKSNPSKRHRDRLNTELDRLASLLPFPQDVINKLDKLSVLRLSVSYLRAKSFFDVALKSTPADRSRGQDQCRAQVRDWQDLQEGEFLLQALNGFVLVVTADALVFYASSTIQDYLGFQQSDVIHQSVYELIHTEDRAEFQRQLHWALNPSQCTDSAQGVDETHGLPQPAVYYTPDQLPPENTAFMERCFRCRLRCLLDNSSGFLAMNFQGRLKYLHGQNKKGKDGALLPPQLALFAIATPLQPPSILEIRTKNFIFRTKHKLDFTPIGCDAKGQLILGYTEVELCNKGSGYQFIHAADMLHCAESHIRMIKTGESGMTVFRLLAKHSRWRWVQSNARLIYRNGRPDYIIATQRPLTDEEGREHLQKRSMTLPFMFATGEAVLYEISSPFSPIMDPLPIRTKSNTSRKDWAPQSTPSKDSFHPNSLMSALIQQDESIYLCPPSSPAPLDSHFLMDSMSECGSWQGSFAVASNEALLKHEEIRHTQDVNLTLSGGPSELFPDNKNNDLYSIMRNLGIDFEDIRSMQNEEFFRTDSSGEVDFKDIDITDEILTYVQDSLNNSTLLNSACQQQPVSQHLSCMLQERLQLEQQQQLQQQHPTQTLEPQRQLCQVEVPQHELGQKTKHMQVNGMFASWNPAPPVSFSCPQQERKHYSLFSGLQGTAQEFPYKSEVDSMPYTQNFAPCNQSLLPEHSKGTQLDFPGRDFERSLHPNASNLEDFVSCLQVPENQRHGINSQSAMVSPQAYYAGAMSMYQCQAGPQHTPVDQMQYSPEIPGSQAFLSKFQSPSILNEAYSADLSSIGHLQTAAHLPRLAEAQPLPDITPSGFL

[3] = tested on: AR; settings: exposure 0–10 µM; ref Vinggaard et al. (2000); cited from earlier work
[4] = tested on: AR; settings: exposure 0–100 µM; ref Kizu et al. (2003); cited from earlier work
[5] = tested on: ERα; settings: 10 mg/kg bw/day; ref Kummer et al. (2008); cited from earlier work
[6] = target: T2, estrogen receptor alpha (ERα) (Homo sapiens, UniProt P03372); experiment: U2OS ERα CALUX antagonist assay; assay type: cell-based; settings: 24 h exposure; with EC50 concentration of E2 (2.7 × 10^−6 µg/ml)
T2 sequence (P03372 1-595): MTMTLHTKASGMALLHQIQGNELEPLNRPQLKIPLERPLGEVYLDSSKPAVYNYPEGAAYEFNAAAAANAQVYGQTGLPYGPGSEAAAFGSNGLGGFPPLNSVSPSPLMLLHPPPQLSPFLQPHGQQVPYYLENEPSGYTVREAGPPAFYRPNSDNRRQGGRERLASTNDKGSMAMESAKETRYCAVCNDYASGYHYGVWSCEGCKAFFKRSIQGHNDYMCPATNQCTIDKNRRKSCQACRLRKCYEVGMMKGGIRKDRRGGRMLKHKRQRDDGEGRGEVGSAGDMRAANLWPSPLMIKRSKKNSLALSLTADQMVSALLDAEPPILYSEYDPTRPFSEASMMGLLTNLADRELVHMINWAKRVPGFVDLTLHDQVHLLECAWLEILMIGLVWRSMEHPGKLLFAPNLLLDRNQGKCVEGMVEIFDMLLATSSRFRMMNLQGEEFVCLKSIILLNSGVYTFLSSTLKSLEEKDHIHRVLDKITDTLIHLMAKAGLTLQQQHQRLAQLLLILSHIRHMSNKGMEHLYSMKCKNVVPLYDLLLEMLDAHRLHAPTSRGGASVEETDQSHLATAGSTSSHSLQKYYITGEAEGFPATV

| SMILES | Effects on AR [3] | Effects on AR [4] | further results |
| --- | --- | --- | --- |
| Oc1ccc2ccc3c4ccccc4cc4ccc1c2c43 [3OH-BaP] | – | – | Effects on ERα [1]: Hydroxy metabolites of BaP, including 3OH-BaP, 9OH-BaP, and 9, 10OH-BaP, act as ERα agonist. |
| c1ccc2c(c1)cc1ccc3cccc4ccc2c1c34 [BaP, benzo[a]pyrene, reference compound] | AR antagonist | AR antagonist (except for anthracene and pyrene) | EC50 [2]: 12.3 nM |
| c1ccc2c(c1)-c1cccc3cccc-2c13 [Fluoranthene] | AR antagonist | – | Effects on ERα [5]: ERα agonist (except for Benzo[k]fluoranthene) |
| c1ccc2cc3ccccc3cc2c1 [Anthracene] | AR antagonist; also recorded: Phenanthrene, Anthracene, Pyrene: antagonize the AR activity just at the highest tested concentration | Anthracene and Pyrene show no AR-mediated activity. | – |
| c1ccc2cc3c(cc2c1)-c1cccc2cccc-3c12 [Benzo[k]fluoranthene] | – | AR antagonist (except for anthracene and pyrene) | Effects on ERα [5]: Benzo[k]fluoranthene shows no ERα-mediated activity. |
| c1ccc2cc3c(ccc4ccccc43)cc2c1 [Benz[a]anthracene] | AR antagonist | – | – |
| Cc1c2ccccc2c(C)c2c1ccc1ccccc12 [7, 12-dimethylbenz[a]anthracene] | AR antagonist | – | – |
| c1ccc2c(c1)ccc1ccccc12 [Phenanthrene] | AR antagonist; also recorded: Phenanthrene, Anthracene, Pyrene: antagonize the AR activity just at the highest tested concentration | – | – |
| c1cc2ccc3cccc4ccc(c1)c2c34 [Pyrene] | AR antagonist; also recorded: Phenanthrene, Anthracene, Pyrene: antagonize the AR activity just at the highest tested concentration | Anthracene and Pyrene show no AR-mediated activity. | – |
| C[C@]12CC[C@@H]3c4ccc(O)cc4C[C@@H](CCCCCCCCC[S+]([O-])CCCC(F)(F)C(F)(F)F)[C@H]3[C@@H]1CC[C@@H]2O (some centres unmarked) [Fulvestrant, fulvestrant] | – | – | ERα Antagonist Assay IC25 [6]: 0.011 ng/mL |
| Oc1ccc2cc3ccc4cccc5ccc(c2c1)c3c45 [9OH-BaP] | – | – | Effects on ERα [1]: Hydroxy metabolites of BaP, including 3OH-BaP, 9OH-BaP, and 9, 10OH-BaP, act as ERα agonist. |

— paper PMC6061685 (Toxicological Sciences, 2018)
